A short description of data set [1]: Hemolytic activity in human RBC up to 200 ug/mL after 1 hr by spectrophotometric analysis relative to control. Conditions: human red blood cells, read-out: Activity. It counts as ADME, cell-based, Erythrocyte.
In data set [2] the test system is Escherichia coli. Nature of the data set: Antibacterial activity against Escherichia coli assessed as growth inhibition by agar plate method. Format: functional.
Data set [3] has as its system Proteus mirabilis. Nature of the data set: Antibacterial activity against Proteus mirabilis assessed as growth inhibition by agar plate method. It counts as functional.
Data set [4] relates to Shigella flexneri. The data set is described as follows: Antibacterial activity against Shigella flexneri assessed as growth inhibition by agar plate method. It counts as functional.
Data set [5] relates to Pseudomonas aeruginosa. The data set is described as follows: Antibacterial activity against Pseudomonas aeruginosa assessed as growth inhibition by agar plate method. Format: functional.
Data set [6] concerns Mycolicibacterium smegmatis. The data set is described as follows: Antibacterial activity against Mycobacterium smegmatis assessed as growth inhibition by agar plate method. Format: functional.
The subject of data set [7] is Arthrobacter protophormiae. The data set is described as follows: Antibacterial activity against Arthrobacter protophormiae assessed as growth inhibition by agar plate method. It counts as functional. To be noted: Glutamicibacter protophormiae.
The subject of data set [8] is Rhodococcus. Nature of the data set: Antibacterial activity against Rhodococcus Sp. assessed as growth inhibition by agar plate method. Format: functional.
Data set [9] has as its system Lactococcus lactis. Nature of the data set: Antibacterial activity against Lactococcus lactis assessed as growth inhibition by agar plate method. It counts as functional.
Data set [10] has as its system Bacillus subtilis. Nature of the data set: Antibacterial activity against Bacillus subtilis assessed as growth inhibition by agar plate method. It counts as functional.
Data set [11] concerns Staphylococcus aureus. Nature of the data set: Antibacterial activity against Staphylococcus aureus assessed as growth inhibition by agar plate method. Format: functional.
Data set [12] can be described thus: Hemolytic activity in human RBC up to 400 ug/mL after 1 hr by spectrophotometric analysis relative to control. It counts as ADME, cell-based, Erythrocyte.
Data set [13] is described as follows: Hemolytic activity in human RBC at 12.5 ug/mL after 1 hr by spectrophotometric analysis relative to control. Format: ADME, cell-based, Erythrocyte. Conditions: human red blood cells, read-out: Activity.

Structures are written as SMILES. Values after ≈ are worked out from the molar mass of the structure shown.

`c1ccc2c(Cc3c[nH]c4ccccc34)c[nH]c2c1` [ARUNDINE]: the hemolysis at 1 h in data set [1] was determined as 20%. Moreover, the minimum inhibitory concentration (MIC) (as a rule, the smallest concentration in the dilution series that meets the test's criterion for growth inhibition) in [2] is 250 µg/mL (≈ 1010 µM); in data set [3] it was 250 µg/mL (≈ 1010 µM); in data set [4], 125 µg/mL (≈ 507 µM); in data set [5], 250 µg/mL (≈ 1010 µM); in data set [6] it was 125 µg/mL (≈ 507 µM); in [7], 125 µg/mL (≈ 507 µM). The MIC in data set [8] worked out at 125 µg/mL (≈ 507 µM); in [9], 500 µg/mL (≈ 2030 µM); in data set [10], 250 µg/mL (≈ 1010 µM); in data set [11], 250 µg/mL (≈ 1010 µM).

In the case of `COc1ccc2[nH]cc(Cc3c[nH]c4ccc(OC)cc34)c2c1`, the MIC in data set [2], in [3], in data set [4], in data set [5], in data set [6] and in data set [7] was > 500 µg/mL in each case. Besides, the MIC in [8], in data set [9], in data set [10] and in data set [11] was > 500 µg/mL each time.

As for `c1ccc(-c2[nH]c3ccccc3c2Cc2c(-c3ccccc3)[nH]c3ccccc23)cc1`, the MIC in data set [2], in data set [3], in data set [4], in data set [5], in [6] and in [7] was > 500 µg/mL throughout. For the same compound, the MIC in [8], in data set [9], in data set [10] and in [11] was > 500 µg/mL in each case.

As for `OC[C@@H](O)[C@@H](O)[C@@H](O)C(c1c[nH]c2ccccc12)c1c[nH]c2ccccc12`, in [12] (human red blood cells, read-out: Activity), the hemolysis at 1 h amounted to 15%. Further, the minimum inhibitory concentration (MIC) in [2] was determined as 62.5 µg/mL (≈ 171 µM); in data set [3] it was 31.2 µg/mL (≈ 85.1 µM); in data set [4] it was 31.2 µg/mL (≈ 85.1 µM); in data set [5] it was 62.5 µg/mL (≈ 171 µM); in [6], 31.2 µg/mL (≈ 85.1 µM); in data set [7], 62.5 µg/mL (≈ 171 µM). Moreover, the MIC in data set [8] was determined as 15.5 µg/mL (≈ 42.3 µM); in data set [9] it was 62.5 µg/mL (≈ 171 µM); in data set [10] it was 125 µg/mL (≈ 341 µM); in data set [11], 62.5 µg/mL (≈ 171 µM).

For `c1coc(C(c2c[nH]c3ccccc23)c2c[nH]c3ccccc23)c1`, the hemolysis at 1 h, 12.5 ug/mL in data set [13] worked out at 50%. Besides, the MIC in [2] was found to be 62.5 µg/mL (≈ 200 µM); in [3] it was 31.2 µg/mL (≈ 99.9 µM); in [4], 31.2 µg/mL (≈ 99.9 µM); in data set [5], 31.2 µg/mL (≈ 99.9 µM); in data set [6], 15.5 µg/mL (≈ 49.6 µM); in data set [7], 31.2 µg/mL (≈ 99.9 µM). Also, the minimum inhibitory concentration (MIC) in data set [8] stood at 31.2 µg/mL (≈ 99.9 µM); in [9], 62.5 µg/mL (≈ 200 µM); in [10], 125 µg/mL (≈ 400 µM); in data set [11], 125 µg/mL (≈ 400 µM).

As to `c1cncc(C(c2c[nH]c3ccccc23)c2c[nH]c3ccccc23)c1`, in data set [1], the hemolysis at 1 h turned out to be 20%. For the same compound, the minimum inhibitory concentration (MIC) in [2] is 31.2 µg/mL (≈ 96.5 µM); in data set [3] it was 15.5 µg/mL (≈ 47.9 µM); in data set [4], 15.5 µg/mL (≈ 47.9 µM); in [5], 31.2 µg/mL (≈ 96.5 µM); in data set [6] it was 31.2 µg/mL (≈ 96.5 µM); in data set [7], 15.5 µg/mL (≈ 47.9 µM). For the same compound, the minimal inhibitory concentration (MIC) in data set [8] came out at 6.5 µg/mL (≈ 20.1 µM); in [9], 15.5 µg/mL (≈ 47.9 µM); in data set [10], 15.5 µg/mL (≈ 47.9 µM); in [11], 32.2 µg/mL (≈ 99.6 µM).

Consider `Oc1ccccc1C(c1c[nH]c2ccccc12)c1c[nH]c2ccccc12`, for which the hemolysis at 1 h in data set [1] came out at 20%. Also, the minimum inhibitory concentration (MIC) in [2] is 15.5 µg/mL (≈ 45.8 µM); in data set [3], 15.5 µg/mL (≈ 45.8 µM); in data set [4], 15.5 µg/mL (≈ 45.8 µM); in data set [5], 62.5 µg/mL (≈ 185 µM); in data set [6], 6.5 µg/mL (≈ 19.2 µM); in [7], 15.5 µg/mL (≈ 45.8 µM). The MIC in data set [8] amounted to 7.5 µg/mL (≈ 22.2 µM); in data set [9], 31.2 µg/mL (≈ 92.2 µM); in [10], 15.5 µg/mL (≈ 45.8 µM); in [11], 15.5 µg/mL (≈ 45.8 µM).

Consider `CN[C@@H]1[C@H](O[C@H]2[C@H](O[C@H]3[C@H](O)[C@@H](O)[C@H](N=C(N)N)[C@@H](O)[C@@H]3N=C(N)N)O[C@@H](C)[C@]2(O)C=O)O[C@@H](CO)[C@H](O)[C@H]1O` [STREPTOMYCIN], for which the MIC in data set [2] came out at 6.25 µg/mL (≈ 10.7 µM); in [3], 1.25 µg/mL (≈ 2.15 µM); in data set [4], 6.25 µg/mL (≈ 10.7 µM); in data set [5] it was 3.15 µg/mL (≈ 5.42 µM); in [6], 1.25 µg/mL (≈ 2.15 µM); in data set [7] it was 0.75 µg/mL (≈ 1.29 µM). Also, the MIC in [8] amounted to 0.75 µg/mL (≈ 1.29 µM); in data set [9], 1.5 µg/mL (≈ 2.58 µM); in data set [10], 1.5 µg/mL (≈ 2.58 µM); in [11], 12.5 µg/mL (≈ 21.5 µM).

Turning to `CN(C)c1ccc(C(c2c[nH]c3ccccc23)c2c[nH]c3ccccc23)cc1`, the minimum inhibitory concentration (MIC) in data set [2], in data set [3], in data set [4], in [5], in data set [6] and in data set [7] was > 500 µg/mL throughout. Further, the MIC in data set [8], in [9], in data set [10] and in data set [11] was > 500 µg/mL each time.

For `c1ccc2c(C(c3c[nH]c4ccccc34)c3c[nH]c4ccccc34)c[nH]c2c1`, in data set [1], the hemolysis at 1 h was 20%. Moreover, the Activity result in data set [12] (erythrocyte, 1 h) is listed as “Toxic”. Besides, the minimum inhibitory concentration (MIC) in [2] was found to be 125 µg/mL (≈ 346 µM); in [3] it was 250 µg/mL (≈ 692 µM); in [4], 250 µg/mL (≈ 692 µM); in [5], 125 µg/mL (≈ 346 µM); in data set [6] it was 31.2 µg/mL (≈ 86.3 µM); in data set [7] it was 125 µg/mL (≈ 346 µM). In addition, the minimum inhibitory concentration (MIC) in data set [8] came out at 31.2 µg/mL (≈ 86.3 µM); in data set [9], 500 µg/mL (≈ 1380 µM); in data set [10] it was 250 µg/mL (≈ 692 µM); in data set [11] it was 250 µg/mL (≈ 692 µM).

Take `OC[C@@H](O)[C@@H](O)[C@H](O)[C@H](O)C(c1c[nH]c2ccccc12)c1c[nH]c2ccccc12`: the MIC in data set [2], in [3], in [4], in data set [5], in data set [6] and in data set [7] was > 500 µg/mL each time. The MIC in data set [8], in data set [9], in [10] and in data set [11] was > 500 µg/mL throughout.

As for `Cc1[nH]c2ccccc2c1Cc1c(C)[nH]c2ccccc12`, the minimum inhibitory concentration (MIC) in [2], in data set [3], in data set [4], in data set [5], in [6] and in [7] was > 500 µg/mL throughout. The MIC in data set [8], in data set [9], in [10] and in data set [11] was > 500 µg/mL throughout.

Take `OC[C@@H](O)[C@H](O)[C@H](O)[C@@H](O)C(c1c[nH]c2ccccc12)c1c[nH]c2ccccc12`: the minimum inhibitory concentration (MIC) in data set [2], in data set [3], in data set [4], in data set [5], in data set [6] and in [7] was > 500 µg/mL throughout. The MIC in [8], in [9], in data set [10] and in data set [11] was > 500 µg/mL throughout.

With `OC[C@@H](O)[C@@H](O)[C@H](O)[C@@H](O)C(c1c[nH]c2ccccc12)c1c[nH]c2ccccc12`, the minimum inhibitory concentration (MIC) in [2], in data set [3], in data set [4], in data set [5], in data set [6] and in [7] was > 500 µg/mL each time. In addition, the minimum inhibitory concentration (MIC) in data set [8], in [9], in data set [10] and in [11] was > 500 µg/mL each time.

The record behind these values is ChEMBL document CHEMBL2434908, “Synthesis and antibacterial evaluation of 3,3-diindolylmethane derivatives” (Med Chem Res, 2013).
